We go through 14 molecules from patent US20060069110A1, “Substituted heterocyclic compounds and methods of use” (priority 2004, published 2006).

The assay has as its system THP1 cells (LPS induced TNF release). The assay can be described thus: Lipopolysaccharide-Activated THP1 Cell TNF Production Assay. Format: cell-based. Conditions: Homo sapiens, THP-1; THP1 cells, bacterial LPS, secreted TNF-α after 3 h at 37° C.; read-out: IC50 values in the THP1 cell assay (LPS induced TNF release). The method, then:
Lipopolysaccharide-Activated THP1 Cell TNF Production Assay
THP1 cells are resuspended in fresh THP1 media (RPMI 1640, 10% heat-inactivated FBS, 1×PGS, 1×NEAA, plus 30 μM βME) at a concentration of 1E6/mL. One hundred microliters of cells per well are plated in a polystyrene 96-well tissue culture. One microgram per mL of bacterial LPS is prepared in THP1 media and is transferred to the wells. Test compounds are dissolved in 100% DMSO and are serially diluted 3 fold in a polypropylene 96-well microtiter plate (drug plate). HI control and LO control wells contain only DMSO. One microliter of test compound from the drug plate followed by 10 μL of LPS are transferred to the cell plate. The treated cells are induced to synthesize and secrete TNF-α at 37° C. for 3 h. Forty microliters of conditioned media are transferred to a 96-well polypropylene plate containing 110 μL of ECL buffer (50 mM Tris-HCl pH 8.0, 100 mM NaCl, 0.05% Tween 20, 0.05% NaN3 and 1% FBS) supplemented with 0.44 nM MAB610 monoclonal Ab (R&D Systems), 0.34 nM ruthenylated AF210NA polyclonal Ab (R&D Systems) and 44 μg/mL sheep anti-mouse M280 Dynabeads (Dynal). After a 2 h incubation at RT with shaking, the reaction is read on the ECL M8 Instrument (IGEN Inc.). A low voltage is applied to the ruthenylated TNF-α immune complexes, which in the presence of TPA (the active component in Origlo), results in a cyclical redox reaction generating light at […]. The amount of secreted TNF-α in the presence of compound compared with that in the presence of DMSO vehicle alone (HI control) is calculated using the formula: % control (POC)=(cpd−average LO)/(average HI−average LO)*100. Data (consisting of POC and inhibitor concentration in μM) is fitted to a 4-parameter equation (y=A+((B−A)/(1+((×/C)ôD))), where A is the minimum y (POC) value, B is the maximum y (POC), C is the x (cpd concentration) at the point of inflection and D is the slope factor) using a Levenburg-Marquardt non-linear regression algorithm.

Bounds are passed on as bounds.

With `CN(c1ccnc(NCCc2cccnc2)n1)c1nc(-c2ccccc2)ncc1C(N)=O` [Example 64, 4-(Methyl(2-(2-(pyridin-3-yl)ethylamino)pyrimidin-4-yl)amino)-2-phenyl-pyrimidine-5-carboxamide], the 50% inhibitory concentration (IC50) was not above 20 µM. With `NC(=O)c1cnc(-c2ccccc2)nc1Nc1ccnc(NCCc2cccnc2)n1` [Example 65, 2-Phenyl-4-(2-(2-(pyridin-3-yl)ethylamino)pyrimidin-4-ylamino)pyrimidine-5-carboxamide] the figure was not above 20 µM; with `C[C@@H](Cc1cccc(CN)c1)Nc1nccc(N(C)c2nc(-c3ccccc3)ncc2F)n1` [Example 66, (S)-N^2-(1-(3-(Aminomethyl)phenyl)propan-2-yl)-N^4-(5-fluoro-2-phenylpyrimidin-4-yl)-N^4-methylpyrimidine-2,4-diamine], not above 20 µM; with `CN(c1ccnc(N[C@H]2CC[C@H](N)CC2)n1)c1nc(-c2ccccc2)ncc1F` [Example 67, N^2-(4-Aminocyclohexyl)-N^4-(5-fluoro-2-phenylpyrimidin-4-yl)-N^4-methyl-pyrimidine-2,4-diamine], not above 20 µM. The same measure for `C[C@@H](Cc1cccc(CN)c1)Nc1nccc(N(C)c2nc(-c3ccccc3F)ncc2F)n1` [Example 68, N^2-((S)-1-(3-(Aminomethyl)phenyl)propan-2-yl)-N^4-(5-fluoro-2-(2-fluorophenyl)-pyrimidin-4-yl)-N^4-methylpyrimidine-2,4-diamine]: not above 20 µM; for `CN(c1nc(NCCc2cccnc2)ncc1F)c1nc(-c2ccccc2)ncc1F` [Example 69, 5-Fluoro-N^4-(5-fluoro-2-phenylpyrimidin-4-yl)-N^4-methyl-N^2-(2-(pyridin-3-yl)-ethyl)pyrimidine-2,4-diamine]: not above 20 µM. Consider `CN(c1ccnc(-c2ccccc2)n1)c1nc(NCCc2cccnc2)ncc1F` [Example 70, 5-Fluoro-N^4-methyl-N^4-(2-phenylpyrimidin-4-yl)-N^2-(2-(pyridin-3-yl)ethyl)-pyrimidine-2,4-diamine], for which the half-inhibitory concentration (IC50) was not above 20 µM. For `CN(c1ccnc(NCCc2cccnc2)n1)c1ccnc(-c2ccccc2F)n1` [Example 71, N^4-(2-(2-Fluorophenyl)pyrimidin-4-yl)-N^4-methyl-N^2-(2-(pyridin-3-yl)ethyl)-pyrimidine-2,4-diamine], the IC50 was not above 20 µM. With `CN(c1ccnc(NCCc2cccnc2)n1)c1ccnc(-c2cccc(F)c2)n1` [Example 72, N^4-(2-(3-Fluorophenyl)pyrimidin-4-yl)-N^4-methyl-N^2-(2-(pyridin-3-yl)ethyl)-pyrimidine-2,4-diamine] the figure was not above 20 µM.

On to `CN(c1ccnc(NCCc2cccnc2)n1)c1ccnc(-c2ccc(F)cc2)n1` [Example 73, N^4-(2-(4-Fluorophenyl)pyrimidin-4-yl)-N^4-methyl-N^2-(2-(pyridin-3-yl)ethyl)-pyrimidine-2,4-diamine], for which the half-maximal inhibitory concentration (IC50) was not above 20 µM. The same measure for `CN(c1ccnc(NCCc2cccnc2)n1)c1ccnc(-c2ccsc2)n1` [Example 74, N^4-Methyl-N^2-(2-(pyridin-3-yl)ethyl)-N^4-(2-(thiophen-3-yl)pyrimidin-4-yl)-pyrimidine-2,4-diamine]: not above 20 µM. As for `CN(c1ccnc(NCCc2cccnc2)n1)c1ccnc(-c2ccccc2C(F)(F)F)n1` [Example 75, N^4-Methyl-N^2-(2-(pyridin-3-yl)ethyl)-N^4-(2-(2-(trifluoromethyl)phenyl)pyrimidin-4-yl)pyrimidine-2,4-diamine], the concentration for half-maximal inhibition (IC50) was not above 20 µM. With `CN(c1ccnc(NCCc2cccnc2)n1)c1ccnc(-c2cccc(F)c2F)n1` [Example 76, N^4-(2-(2,3-Difluorophenyl)pyrimidin-4-yl)-N^4-methyl-N^2-(2-(pyridin-3-yl)ethyl)-pyrimidine-2,4-diamine] the figure was not above 20 µM; with `CN(c1ccnc(NCCc2cccnc2)n1)c1ccnc(-c2ccc(F)cc2F)n1` [Example 77, N^4-(2-(2,4-Difluorophenyl)pyrimidin-4-yl)-N^4-methyl-N^2-(2-(pyridin-3-yl)ethyl)-pyrimidine-2,4-diamine], not above 20 µM.
